From the OligoGym collection
Where “and” joins values, the source holds several entries; their conditions need not be identical. Equal values may be shown once. After the bases stand the sugars from the 5' end (letter, count) and the backbone: PS all phosphorothioate, else s phosphorothioate and o phosphodiester by linkage. Methylation of C is not given here. e = 2'-O-(2-methoxyethyl) (MOE); k = constrained ethyl (cEt); d = 2'-deoxy (DNA)

Target: IRF4
Conditions: ASO

Row | Sequence | target mRNA inhibition (MM.1R, 1 µM) | target mRNA inhibition (SK-MEL-28, 4 µM) | other results
1 | ATACACACCCTCGGGC (sugars k3 d10 k3, PS) | -10% |  | 
2 | ATAGAATTAGGTGCTT (sugars k3 d10 k3, PS) | 25% | 64% | target mRNA inhibition (MM.1R, 0.0625 µM): -5%; target mRNA inhibition (MM.1R, 0.074 µM): -1%; target mRNA inhibition (MM.1R, 0.222 µM): 33%; target mRNA inhibition (MM.1R, 0.25 µM): 6%; target mRNA inhibition (MM.1R, 0.666 µM): 11%; target mRNA inhibition (MM.1R, 2 µM): 8%; target mRNA inhibition (MM.1R, 4 µM): 56%
3 | ATAGAGCATCACTATT (sugars k3 d10 k3, PS) | 0% |  | 
4 | ATAGATCTGTGGTAAT (sugars k3 d10 k3, PS) |  | 38% | 
5 | ATAGCTGAGCTGATCA (sugars k3 d10 k3, PS) | 30% |  | 
6 | ATAGCTGTTTATTTCC (sugars k3 d10 k3, PS) |  | 62% | target mRNA inhibition (MM.1R, 0.074 µM): 7%; target mRNA inhibition (MM.1R, 0.222 µM): 12%; target mRNA inhibition (MM.1R, 0.666 µM): 24%; target mRNA inhibition (MM.1R, 2 µM): 50%; target mRNA inhibition (SK-MEL-28, 0.185 µM): 13%; target mRNA inhibition (SK-MEL-28, 5 µM): 75%; target mRNA inhibition (SK-MEL-28, 15 µM): 90%
7 | ATAGGTATACTTAAGC (sugars k3 d10 k3, PS) |  | 80% and 79% | 
8 | ATAGTTAAGTACTTGG (sugars k3 d10 k3, PS) |  | 48% | 
9 | ATATAGAATTAGGTGC (sugars k3 d10 k3, PS) |  | 16% | 
10 | ATATAGTTGTCTGGCT (sugars k3 d10 k3, PS) |  | 41% | 
11 | ATATATGACGACTTAA (sugars k3 d10 k3, PS) |  | 6% | 
12 | ATATCCTGTAGTATGA (sugars k3 d10 k3, PS) |  | 57% | 
13 | ATATGGCTAAACCTGG (sugars k3 d10 k3, PS) | 18% |  | 
14 | ATATTAGAGACTGTAT (sugars k3 d10 k3, PS) |  | 25% | 
15 | ATCACCGAACACACCA (sugars k3 d10 k3, PS) | -12% |  | 
16 | ATCAGAATGTTTCGAC (sugars k3 d10 k3, PS) |  | 46% | 
17 | ATCATCCGAAAAGACT (sugars k3 d10 k3, PS) | 4% |  | 
18 | ATCCCTTATTAGACTG (sugars k3 d10 k3, PS) | -7% |  | 
19 | ATCGAATCTGCCCAAA (sugars k3 d10 k3, PS) |  | 26% | 
20 | ATCTAAGGCAAGCTGA (sugars k3 d10 k3, PS) |  | 37% | 
21 | ATCTACCTCAGTTTGT (sugars k3 d10 k3, PS) |  | 42% | 
22 | ATCTGAGACTACACCT (sugars k3 d10 k3, PS) | -8% |  | 
23 | ATCTGGATGAGCTTAC (sugars k3 d10 k3, PS) |  | 38% | 
24 | ATGAAAGTGTGTGCAA (sugars k3 d10 k3, PS) |  | 64% | 
25 | ATGAACCCTAAGTTTA (sugars k3 d10 k3, PS) | -4% |  | 
26 | ATGAACGGAAGTTTAC (sugars k3 d10 k3, PS) |  | 54% | 

Row | Sequence | target mRNA inhibition (MM.1R, 1 µM) | target mRNA inhibition (SK-MEL-28, 4 µM) | other results
27 | ATGACATGCTTTGTCC (sugars k3 d10 k3, PS) |  | 46% | 
28 | ATGAGAAACGGCCTGG (sugars k3 d10 k3, PS) |  | 64% | 
29 | ATGAGAACTTTGATGT (sugars k3 d10 k3, PS) |  | 15% | 
30 | ATGAGGGACCAGAACT (sugars k3 d10 k3, PS) | 6% |  | 
31 | ATGCCATGGACAAGTT (sugars k3 d10 k3, PS) | 18% |  | 
32 | ATGCGAAGAATTTTAG (sugars k3 d10 k3, PS) |  | 21% | 
33 | ATGCGGAGGTTCCTTG (sugars k3 d10 k3, PS) | 47% and 52% |  | 
34 | ATGCTGAACCCCACAG (sugars k3 d10 k3, PS) | 16% |  | 
35 | ATGGAAATACGACAAC (sugars k3 d10 k3, PS) |  | 35% | 
36 | ATGGCAAAAGACCAAT (sugars k3 d10 k3, PS) | -5% |  | 
37 | ATGGCGCATAGGTCCT (sugars k3 d10 k3, PS) | -5% |  | 
38 | ATGGCTAAACCTGGCA (sugars k3 d10 k3, PS) | 22% |  | 
39 | ATGTAAAGTCTGCTGA (sugars k3 d10 k3, PS) | 20% |  | 
40 | ATGTAGTTGTGAACCT (sugars k3 d10 k3, PS) |  | 39% | 
41 | ATGTATACCAACGACA (sugars k3 d10 k3, PS) |  | 63% | 
42 | ATGTGATAGCTGAGCT (sugars kdddddddddkekeke, PS) | 15% |  | 
43 | ATGTGATAGCTGAGCT (sugars kkdddddddddekeke, PS) | 2% |  | 
44 | ATGTGATAGCTGAGCT (sugars kkdddddddddkdkdk, PS) | 27% |  | 
45 | ATGTGGAGCTCCTCCT (sugars k3 d10 k3, PS) |  | 20% | 
46 | ATGTGTATTACTCTTA (sugars k2 d9 e3 k2, PS) | 40% and 44% |  | 
47 | ATGTGTATTACTCTTA (sugars kkdddddddddekeke, PS) | 60% and 61% |  | 
48 | ATGTTAGCCAATTCCT (sugars kddddddddddkekek, PS) | 0% and 7% |  | 
49 | ATTAAAGAGCGCATTT (sugars k3 d10 k3, PS) |  | 13% | 
50 | ATTACTCTTAGGCACA (sugars k3 d10 k3, PS) | 30% |  | 
51 | ATTATATACTGGTTGG (sugars k3 d10 k3, PS) | 39% and 57% |  | target mRNA inhibition (MM.1R, 0.0625 µM): 3% and 9%; target mRNA inhibition (MM.1R, 0.25 µM): 15% and 25%; target mRNA inhibition (MM.1R, 4 µM): 77% and 74%
52 | ATTATATACTGGTTGG (sugars kddddddddddkekek, PS) | 22% |  | 

Row | Sequence | target mRNA inhibition (MM.1R, 1 µM) | target mRNA inhibition (SK-MEL-28, 4 µM) | other results
53 | ATTATATACTGGTTGG (sugars kkddddddddddkeke, PS) | 32% |  | 
54 | ATTATATACTGGTTGG (sugars kkdddddddddkekek, PS) | 52% |  | 
55 | ATTCAATGCACCCCCC (sugars k3 d10 k3, PS) | 2% |  | 
56 | ATTCACACTGCCGTGA (sugars k3 d10 k3, PS) |  | 34% | 
57 | ATTCAGGAGAGCCCCT (sugars k3 d10 k3, PS) | -15% |  | 
58 | ATTCATGATGTATACC (sugars k3 d10 k3, PS) |  | 62% | 
59 | ATTGCCTGTTAAGTCC (sugars k3 d10 k3, PS) |  | 73% | 
60 | ATTTACAGCATCTAAG (sugars k3 d10 k3, PS) |  | 47% | 
61 | ATTTCATAGCTAGTTC (sugars k3 d10 k3, PS) |  | 44% | 
62 | ATTTCCGGGTGTGGCT (sugars k3 d10 k3, PS) | 7% |  | 
63 | CAAAACCAGTACAGTC (sugars k3 d10 k3, PS) |  | 49% | 
64 | CAAAATAGTCACTCAC (sugars k3 d10 k3, PS) |  | -3% | 
65 | CAAACCCTACTGGGTA (sugars k3 d10 k3, PS) |  | 32% | 
66 | CAAACTCCTCAGGGAA (sugars k3 d10 k3, PS) |  | 23% | 
67 | CAAAGCATAGAGTCAC (sugars k3 d10 k3, PS) |  | 36% | 
68 | CAACAGGCGGACACGC (sugars k3 d10 k3, PS) |  | 42% | 
69 | CAACCATTTTCACAAG (sugars k4 d8 k4, PS) |  | 5% | 
70 | CAAGAAGGATGGGACC (sugars k3 d10 k3, PS) |  | 25% | 
71 | CAAGCAGTGATGTCAG (sugars k2 d9 e3 k2, PS) | 15% and 8% |  | 
72 | CAAGCAGTGATGTCAG (sugars kdddddddddkekeke, PS) | 10% and 12% |  | 
73 | CAAGCTGGGCCTTGCC (sugars k3 d10 k3, PS) |  | 34% | 
74 | CAAGGAGATCCACCTG (sugars k3 d10 k3, PS) |  | -21% | 
75 | CAAGTGTCTAAAGTCC (sugars kkddddddddddkeke, PS) | 16% and 17% |  | 
76 | CAATGAACGGAAGTTT (sugars k3 d10 k3, PS) |  | 33% | 
77 | CAATTTATGCCATGGA (sugars k3 d10 k3, PS) |  | 62% | target mRNA inhibition (MM.1R, 0.074 µM): -4%; target mRNA inhibition (MM.1R, 0.222 µM): 5%; target mRNA inhibition (MM.1R, 0.666 µM): 9%; target mRNA inhibition (MM.1R, 2 µM): 40%
78 | CACAGAGGACTTCGGG (sugars k3 d10 k3, PS) |  | 49% | 

Row | Sequence | target mRNA inhibition (MM.1R, 1 µM) | target mRNA inhibition (SK-MEL-28, 4 µM) | other results
79 | CACATAATCCAGTATC (sugars k3 d10 k3, PS) |  | 43% | 
80 | CACATCAATGTTTTAG (sugars kkddddddddddkeke, PS) | 25% and 39% |  | 
81 | CACATCAATGTTTTAG (sugars kkdddddddddekeke, PS) | 28% and 27% |  | 
82 | CACATGATAAGGCACT (sugars k3 d10 k3, PS) | 21% |  | 
83 | CACCAATGGCAGCACC (sugars k3 d10 k3, PS) | 16% |  | 
84 | CACCAGCCATCGGCAG (sugars k3 d10 k3, PS) | -19% |  | 
85 | CACCTCTTCACTACCT (sugars k3 d10 k3, PS) | 0% |  | 
86 | CACGGACGGAGGCGGC (sugars k3 d10 k3, PS) |  | 18% | 
87 | CACTACCATATTGGAA (sugars k3 d10 k3, PS) |  | 22% | 
88 | CACTCTTACTCCGCTG (sugars k3 d10 k3, PS) | -12% |  | 
89 | CACTGAACCATGTTCC (sugars k3 d10 k3, PS) |  | 61% | 
90 | CACTTTGTACGGGTCT (sugars k3 d10 k3, PS) | 11% |  | 
91 | CAGAAACCCTCATCAC (sugars k3 d10 k3, PS) |  | 4% | 
92 | CAGAACGAGGTAAATC (sugars k3 d10 k3, PS) |  | 59% | 
93 | CAGAATGAAGTTAAGG (sugars k3 d10 k3, PS) |  | 50% | 
94 | CAGACCTTATGCTTGG (sugars k4 d8 k4, PS) |  | 26% | 
95 | CAGAGCCAACTTATAG (sugars k3 d10 k3, PS) | 30% and 43% |  | 
96 | CAGAGTTGTTCCACCC (sugars k3 d10 k3, PS) |  | 62% | 
97 | CAGATAACGAGGTGCC (sugars k3 d10 k3, PS) |  | 30% | 
98 | CAGATTGAATCCATAT (sugars k3 d10 k3, PS) | 20% |  | 
99 | CAGCAAAACGCAGAGC (sugars k3 d10 k3, PS) |  | 54% | 
100 | CAGCAGGTTTTGAGAC (sugars k3 d10 k3, PS) |  | 20% | 
101 | CAGCATATTACAAACG (sugars k3 d10 k3, PS) |  | 58% | 
